Measured values as given in ChEMBL document CHEMBL5390211, “Discovery of N-Arylsulfonyl-Indole-2-Carboxamide Derivatives as Galectin-3 and Galectin-8 C-Terminal Domain Inhibitors” (ACS Med Chem Lett, 2023).

How the values were obtained:
[1] = molecular target: T1, Galectin-3 (Homo sapiens, UniProt P17931); experiment: Binding affinity to human Gal-3 expressed in Escherichia coli BL21 (DE3) cells by competitive fluorescence polarization assay
[2] = molecular target: T2, Galectin-8 (Homo sapiens, UniProt O00214); experiment: Binding affinity to C-terminal domain human Gal-8 expressed in Escherichia coli BL21 (DE3) cells by competitive fluorescence polarization assay
T2 sequence (O00214 whole entry): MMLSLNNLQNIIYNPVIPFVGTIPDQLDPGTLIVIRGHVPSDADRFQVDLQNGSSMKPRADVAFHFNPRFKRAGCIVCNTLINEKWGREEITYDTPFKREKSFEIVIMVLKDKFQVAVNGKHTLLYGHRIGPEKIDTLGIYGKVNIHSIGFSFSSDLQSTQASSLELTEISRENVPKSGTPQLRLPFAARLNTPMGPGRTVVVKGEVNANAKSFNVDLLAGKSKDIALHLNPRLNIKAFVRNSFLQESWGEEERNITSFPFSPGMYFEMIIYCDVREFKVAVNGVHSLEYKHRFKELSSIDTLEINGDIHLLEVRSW

[3] = molecular target: Galectin-1 (Homo sapiens, UniProt P09382); experiment: Binding affinity to human Gal-1 expressed in Escherichia coli BL21 (DE3) by competitive fluorescence polarization assay
Sequence of Galectin-1 (P09382 whole entry): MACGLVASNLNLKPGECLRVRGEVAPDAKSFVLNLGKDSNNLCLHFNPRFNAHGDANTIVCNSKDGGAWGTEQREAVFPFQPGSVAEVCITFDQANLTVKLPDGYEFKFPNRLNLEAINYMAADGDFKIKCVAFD

[4] = molecular target: T1, Galectin-3
Description: Binding affinity to human Gal-3 expressed in Escherichia coli BL21 (DE3) cells assessed as change in enthalpy by isothermal titration calorimetry analysis

[5] = molecular target: T1, Galectin-3; remark: listed apart in the source
Description: Binding affinity to human Gal-3 expressed in Escherichia coli BL21 (DE3) cells assessed as change in gibbs free energy by isothermal titration calorimetry analysis

[6] = molecular target: T3, Galectin-8 (Homo sapiens) (UniProt O00214)
T3 sequence (whole entry): T2 sequence (O00214 whole entry)
Description: Binding affinity to C-terminal domain human Gal-8 expressed in Escherichia coli BL21 (DE3) cells assessed as change in entropy by isothermal titration calorimetry analysis

[7] = molecular target: T1, Galectin-3; remark: listed apart in the source
Description: Binding affinity to human Gal-3 expressed in Escherichia coli BL21 (DE3) cells assessed as change in entropy by isothermal titration calorimetry analysis

[8] = system: MRC5; experiment: Inhibition of cell migration in human MRC5 cells assessed as reduction in would closure at 1 uM incubated for 48 hrs by Giemsa staining based microscopic analysis relative to control; assay type: toxicity
[9] = molecular target: T2, Galectin-8; experiment: Binding affinity to C-terminal domain human Gal-8 expressed in Escherichia coli BL21 (DE3) cells by isothermal titration calorimetry analysis
[10] = molecular target: T2, Galectin-8; experiment: Binding affinity to N-terminal domain human Gal-8 expressed in Escherichia coli BL21 (DE3) cells by competitive fluorescence polarization assay
[11] = molecular target: T3, Galectin-8 (Homo sapiens); remark: listed apart in the source
Description: Binding affinity to C-terminal domain human Gal-8 expressed in Escherichia coli BL21 (DE3) cells assessed as change in enthalpy by isothermal titration calorimetry analysis

[12] = molecular target: T1, Galectin-3; experiment: Binding affinity to human Gal-3 expressed in Escherichia coli BL21 (DE3) cells by isothermal titration calorimetry analysis
[13] = molecular target: T3, Galectin-8 (Homo sapiens); remark: listed apart in the source
Description: Binding affinity to C-terminal domain human Gal-8 expressed in Escherichia coli BL21 (DE3) cells assessed as change in gibbs free energy by isothermal titration calorimetry analysis

[14] = Cytotoxicity against human MRC5 cells assessed as cell viability at 10 uM incubated for 24 hrs by MTT assay relative to control; assay type: toxicity, cell-based; conditions: read-out: Activity
[15] = Cytotoxicity against human MRC5 cells assessed as cell viability at 1 uM incubated for 24 hrs by MTT assay relative to control; assay type: toxicity, cell-based; conditions: read-out: Activity
[16] = molecular target: T2, Galectin-8; experiment: Binding affinity to N-terminal domain human Gal-8 expressed in Escherichia coli BL21star (DE3) cells by competitive fluorescence polarization assay
[17] = molecular target: T2, Galectin-8; experiment: Binding affinity to N-terminal domain human Gal-8 expressed in Escherichia coli BL21 (DE3) cells by isothermal titration calorimetry analysis

T1 sequence (P17931 whole entry, the tested form may be a part): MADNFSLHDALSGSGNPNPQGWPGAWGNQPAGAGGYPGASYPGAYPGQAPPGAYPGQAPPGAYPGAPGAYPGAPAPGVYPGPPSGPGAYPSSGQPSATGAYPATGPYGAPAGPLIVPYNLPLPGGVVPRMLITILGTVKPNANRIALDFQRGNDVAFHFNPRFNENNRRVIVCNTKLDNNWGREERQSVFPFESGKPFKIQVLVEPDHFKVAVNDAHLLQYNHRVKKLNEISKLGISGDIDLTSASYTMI

| Molecule | Kd [1] | Kd [2] | also measured |
| --- | --- | --- | --- |
| O=C(NS(=O)(=O)c1ccn(Cl)n1)c1cc2cc(Oc3ccc(Cl)c(Cl)c3)ccc2[nH]1 | 76.9 µM | 57 µM |  |
| O=C(NS(=O)(=O)Cc1noc2ccccc12)c1cc2cc(Oc3ccc(Cl)c(Cl)c3)ccc2[nH]1 | 321 µM | 24.6 µM |  |
| O=C(NS(=O)(=O)c1ccc2ncsc2c1)c1cc2cc(Oc3ccc(Cl)c(Cl)c3)ccc2[nH]1 | 7.6 µM | 8.3 µM | deltaH [4]: 5.36 kJ/mol; deltaG [5]: -30.8 kJ/mol; -TdeltaS [6]: -50.2 kJ/mol; -TdeltaS [7]: -36.1 kJ/mol; Kd [3]: 107 µM; inhibition at 1 µM [8]: 14%; Kd [9]: 6.04 µM; Kd [10]: 210 µM; deltaH [11]: 20.5 kJ/mol; Kd [12]: 4.12 µM; deltaG [13]: -29.8 kJ/mol; viability at 24 h, 10 µM [14]: 66%; viability at 24 h, 1 µM [15]: 95% |
| CCOC(=O)c1ccc(S(=O)(=O)N(C)C(=O)c2cc3cc(Oc4ccc(Cl)c(Cl)c4)ccc3n2C)cc1 | 363 µM |  |  |
| O=C(NS(=O)(=O)c1ccccn1)c1cc2cc(Oc3ccc(Cl)c(Cl)c3)ccc2[nH]1 | 210 µM | 41.8 µM |  |
| OC[C@H]1O[C@@H](S[C@@H]2O[C@H](CO)[C@H](O)[C@H](n3cc(-c4cccc(F)c4)nn3)[C@H]2O)[C@H](O)[C@@H](n2cc(-c3cccc(F)c3)nn2)[C@H]1O [OLITIGALTIN] |  | 21.6 µM | inhibition at 1 µM [8]: 49%; Kd [16]: 86 µM; Kd [10]: 281 µM |
| O=C(O)c1ccc(S(=O)(=O)NC(=O)c2cc3cc(Oc4ccc(Cl)c(Cl)c4)ccc3[nH]2)cc1 | 119 µM | 73 µM |  |
| O=C(NS(=O)(=O)c1ccccc1)c1cc2cc(Oc3ccc(Cl)c(Cl)c3)ccc2[nH]1 | 37.4 µM | 18.7 µM |  |
| O=C(NS(=O)(=O)c1ccc(Cl)cc1Cl)c1cc2c(Oc3ccc(F)cc3)cccc2[nH]1 | 224 µM | 253 µM |  |
| O=C(NS(=O)(=O)c1ccc(Cl)cc1Cl)c1cc2ccc(Oc3ccc(F)cc3)cc2[nH]1 | 303 µM | 76.2 µM |  |
| COc1cccc(S(=O)(=O)NC(=O)c2cc3cc(Oc4ccc(Cl)c(Cl)c4)ccc3[nH]2)c1 | 39.2 µM | 17.7 µM |  |
| LACTOSE, ANHYDROUS |  |  | Kd [17]: 893 µM; Kd [9]: 93 µM |
| O=C(NS(=O)(=O)c1cc(Cl)c(Cl)s1)c1cc2cc(Oc3ccc(Cl)cn3)ccc2[nH]1 | 212 µM | > 300 µM |  |
| Cc1noc(C)c1S(=O)(=O)NC(=O)c1cc2cc(Oc3ccc(Cl)c(Cl)c3)ccc2[nH]1 | 74.2 µM | 22.9 µM |  |
| O=C(NS(=O)(=O)c1ccc(Cl)cc1)c1cc2cc(Oc3ccc(Cl)c(Cl)c3)ccc2[nH]1 | 80.9 µM | 18.1 µM |  |
| CC(C)c1ccc(Oc2ccc3cc(C(=O)NS(=O)(=O)c4ccc(Cl)cc4Cl)[nH]c3c2)cc1 | 784 µM |  |  |
| O=C(NS(=O)(=O)c1ccc(Cl)cc1Cl)c1cc2cc(Oc3ccc(F)cc3)ccc2[nH]1 | 121 µM | 57 µM |  |
| O=C(NS(=O)(=O)c1sccc1Cc1ccccc1)c1cc2cc(Oc3ccc(Cl)c(Cl)c3)ccc2[nH]1 | 22.7 µM | 12.5 µM | deltaH [4]: -19.8 kJ/mol; deltaG [5]: -27.9 kJ/mol; -TdeltaS [6]: -22.9 kJ/mol; -TdeltaS [7]: -8.12 kJ/mol; Kd [3]: 138 µM; inhibition at 1 µM [8]: 21%; Kd [9]: 2.06 µM; Kd [10]: 203 µM; deltaH [11]: -9.58 kJ/mol; Kd [12]: 12.8 µM; deltaG [13]: -32.5 kJ/mol; viability at 24 h, 10 µM [14]: 99%; viability at 24 h, 1 µM [15]: 97% |

More lines, main results first:

| Kd [1] | Kd [2] | Molecule | also measured |
| --- | --- | --- | --- |
| 31 µM | 20.3 µM | Cc1nc(Cl)sc1S(=O)(=O)NC(=O)c1cc2cc(Oc3ccc(Cl)c(Cl)c3)ccc2[nH]1 |  |
| 35.9 µM | 5.6 µM | O=C(NS(=O)(=O)c1sc(Cl)cc1Cc1ccccc1)c1cc2cc(Oc3ccc(Cl)c(Cl)c3)ccc2[nH]1 | Kd [3]: 96.1 µM |
| 20.1 µM | 15.5 µM | O=C(NS(=O)(=O)c1ccc2c(c1)OCC2)c1cc2cc(Oc3ccc(Cl)c(Cl)c3)ccc2[nH]1 |  |
| 10.6 µM | 8.2 µM | O=C(NS(=O)(=O)c1csc2ccccc12)c1cc2cc(Oc3ccc(Cl)c(Cl)c3)ccc2[nH]1 |  |
| 15.5 µM | 18.5 µM | O=C(NS(=O)(=O)c1ccc(OC(F)(F)F)cc1)c1cc2cc(Oc3ccc(Cl)c(Cl)c3)ccc2[nH]1 |  |
| 10 µM | 18.7 µM | O=C(NS(=O)(=O)c1ccc2oc(=O)ccc2c1)c1cc2cc(Oc3ccc(Cl)c(Cl)c3)ccc2[nH]1 | deltaH [4]: -16 kJ/mol; deltaG [5]: -28.3 kJ/mol; -TdeltaS [6]: -28.3 kJ/mol; -TdeltaS [7]: -12.3 kJ/mol; Kd [3]: 86.9 µM; Kd [9]: 2.01 µM; Kd [10]: > 300 µM; deltaH [11]: -4.23 kJ/mol; Kd [12]: 11 µM; deltaG [13]: -32.5 kJ/mol |
| 16 µM | 9.4 µM | O=C(NS(=O)(=O)c1ccc(Cl)cc1Cl)c1cc2cc(Oc3ccc(Cl)c(Cl)c3)ccc2[nH]1 | Kd [3]: 43.7 µM; Kd [10]: > 300 µM |
| 14.3 µM | 8 µM | O=C(NS(=O)(=O)c1cc(Cl)c(Cl)s1)c1cc2cc(Oc3ccc(Br)c(F)c3)ccc2[nH]1 |  |
| 24.9 µM | 16.4 µM | O=C(NS(=O)(=O)c1ccccc1Cl)c1cc2cc(Oc3ccc(Cl)c(Cl)c3)ccc2[nH]1 |  |
| 30.5 µM | 9.6 µM | O=C(NS(=O)(=O)c1cc(Cl)c(Cl)s1)c1cc2cc(Oc3ccc(Cl)c(Cl)c3)ccc2o1 | Kd [3]: > 500 µM |
| 32.3 µM | 16 µM | O=C(NS(=O)(=O)c1ccc(F)cc1S(=O)(=O)C(F)(F)F)c1cc2cc(Oc3ccc(Cl)c(Cl)c3)ccc2[nH]1 |  |
| 30 µM | 19.2 µM | O=C(NS(=O)(=O)c1ccc([N+](=O)[O-])cc1)c1cc2cc(Oc3ccc(Cl)c(Cl)c3)ccc2[nH]1 |  |
| 24.9 µM | 14.1 µM | O=C(NS(=O)(=O)c1cc(Cl)c(Cl)s1)c1cc2cc(Oc3ccc(Cl)cc3Br)ccc2[nH]1 |  |
| 17.1 µM | 17.5 µM | CCOC(=O)c1ccc(S(=O)(=O)NC(=O)c2cc3cc(Oc4ccc(Cl)c(Cl)c4)ccc3[nH]2)cc1 | Kd [3]: 118 µM; Kd [10]: 228 µM |
| 36.5 µM | 16.1 µM | CCOC(=O)c1ccc(S(=O)(=O)NC(=O)c2cc3cc(Oc4ccc(Cl)c(Cl)c4)ccc3n2C)cc1 | Kd [3]: > 500 µM; Kd [10]: > 300 µM |
| 27.3 µM | 19.2 µM | O=C(NS(=O)(=O)c1cc(Cl)c(Cl)s1)c1cc2cc(Oc3cccc(Cl)c3Br)ccc2[nH]1 |  |
| 21.9 µM | 17.3 µM | O=C(NS(=O)(=O)c1cc(Cl)sc1Cl)c1cc2cc(Oc3ccc(Cl)c(Cl)c3)ccc2[nH]1 |  |
| 20 µM | 10.9 µM | O=C(NS(=O)(=O)c1cc(Cl)c(Cl)s1)c1cc2cc(Oc3ccc(Cl)c(Cl)c3)ccc2[nH]1 | Kd [3]: 70.8 µM; Kd [10]: > 300 µM |
| 33 µM | 14.9 µM | O=C(NS(=O)(=O)c1cc(F)c(F)c(F)c1)c1cc2cc(Oc3ccc(Cl)c(Cl)c3)ccc2[nH]1 |  |
| 23.7 µM | 9.4 µM | O=C(NS(=O)(=O)c1cc(Cl)c(Cl)s1)c1cc2cc(Oc3ccc(Br)c(Cl)c3)ccc2[nH]1 |  |
| 27.1 µM | 7.3 µM | O=C(NS(=O)(=O)c1cc(Cl)c(Cl)s1)c1cc2cc(Oc3ccc(Br)cc3F)ccc2[nH]1 |  |
| 22.7 µM | 19.3 µM | O=C(NS(=O)(=O)c1cc(Cl)c(Cl)s1)c1cc2cc(Oc3ccc(Cl)cc3Cl)ccc2[nH]1 |  |
